These results are taken from PubChem BioAssay (NCI).

Test systems include CAKI-1 renal; CCRF-CEM leukemia; DU-145 prostate; HOP-92 NSCLC; RPMI-8226 leukemia; SF-268 CNS; SK-MEL-2 melanoma; SK-OV-3 ovarian; SNB-19 CNS; SW-620 colon.
What all share (assay): inhibition of tumour cell growth, NCI panel, 48 h

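Growth conditions: 96-well plates. Treatment: test compound, 48 hours, 5 concentrations. Analysis: linear interpolation between bracketing concentrations; unreached endpoints set to highest concentration. At the GI50, growth is halved. TGI: total growth inhibition.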

For `O=[N+]([O-])c1ccc(N2CCOCC2)c2c1no[n+]2[O-]`, the GI50 with CAKI-1 renal is 0.443 µM; with CCRF-CEM leukemia it was 0.728 µM; in the test on DU-145 prostate, 1.42 µM; in the test on HOP-92 NSCLC, 0.923 µM; with RPMI-8226 leukemia it was 1.51 µM; in the test on SF-268 CNS, 0.939 µM. The GI50 in the test on SK-MEL-2 melanoma was 2.06 µM; with SK-OV-3 ovarian it was 1.43 µM; in the test on SNB-19 CNS, 3.74 µM; in the test on SW-620 colon, 1.18 µM. Also, the TGI in the test on CAKI-1 renal was found to be 1.89 µM; with CCRF-CEM leukemia it was 3.86 µM; in the test with DU-145 prostate, 5.76 µM; with HOP-92 NSCLC, 5.62 µM; in the test on RPMI-8226 leukemia it was 4.09 µM; in the test with SF-268 CNS, 3.03 µM. The TGI with SK-MEL-2 melanoma is 5.11 µM; in the test on SK-OV-3 ovarian, 4.68 µM; in the test on SNB-19 CNS, 16.4 µM; with SW-620 colon, 2.48 µM.
Turning to `Cc1cc[n+]2c(c1)-c1cc(C)cc[n+]1CC2`, the TGI in the test with CAKI-1 renal, in the test on CCRF-CEM leukemia, in the test with DU-145 prostate, in the test on HOP-92 NSCLC, with RPMI-8226 leukemia and in the test on SF-268 CNS was greater than 100 µM throughout. In addition, the TGI with SK-MEL-2 melanoma, with SK-OV-3 ovarian, in the test with SNB-19 CNS and with SW-620 colon was greater than 100 µM each time.
`CSc1nc2sc3c(c2c(=O)n1-c1ccc(C(C)C)cc1)CCC(=O)C3`: the GI50 in the test with CAKI-1 renal is 2.38 µM; with CCRF-CEM leukemia it was 2.42 µM; in the test with DU-145 prostate, 3.75 µM; in the test with HOP-92 NSCLC, 2.21 µM; in the test on RPMI-8226 leukemia, 2.1 µM; in the test on SF-268 CNS it was 2.18 µM. Moreover, the GI50 with SK-MEL-2 melanoma was 2.5 µM; in the test on SK-OV-3 ovarian, 2.63 µM; in the test with SNB-19 CNS it was 2.15 µM; with SW-620 colon, 2.23 µM. Also, the TGI is 6.03 µM in the test on CAKI-1 renal; 6.42 µM in the test with CCRF-CEM leukemia; greater than 100 µM with DU-145 prostate; 5.24 µM in the test with HOP-92 NSCLC; 5.07 µM in the test with RPMI-8226 leukemia; 5.2 µM with SF-268 CNS. Moreover, the TGI in the test on SK-MEL-2 melanoma amounted to 5.77 µM; with SK-OV-3 ovarian, 6.92 µM; in the test on SNB-19 CNS, 4.56 µM; in the test on SW-620 colon, 4.56 µM.
With `NS(=O)(=O)c1ccc(-c2cc3ccncc3cc2OCc2ccccc2)cc1`, the GI50 in the test on CAKI-1 renal is greater than 23.8 µM; with CCRF-CEM leukemia, greater than 17.7 µM; in the test with DU-145 prostate, 16.4 µM; with HOP-92 NSCLC, 4.94 µM; in the test with RPMI-8226 leukemia, greater than 18.2 µM; with SF-268 CNS, greater than 20.1 µM. The GI50 was 14.6 µM in the test with SK-MEL-2 melanoma, 11.1 µM in the test with SK-OV-3 ovarian, greater than 25 µM in the test on SNB-19 CNS and greater than 22.9 µM with SW-620 colon. In addition, the TGI in the test on CAKI-1 renal, in the test on CCRF-CEM leukemia, in the test on DU-145 prostate, with HOP-92 NSCLC, with RPMI-8226 leukemia and in the test on SF-268 CNS was greater than 25 µM throughout. The TGI in the test on SK-MEL-2 melanoma was greater than 25 µM; with SK-OV-3 ovarian, greater than 19.3 µM; in the test with SNB-19 CNS, greater than 25 µM; in the test with SW-620 colon it was greater than 25 µM.
With `Oc1cccc2ccc(N/N=C/c3cc(CN4CCOCC4)c(O)c4ncccc34)nc12`, the GI50 was 0.0506 µM with CAKI-1 renal; 0.0391 µM in the test on CCRF-CEM leukemia; 0.0645 µM with DU-145 prostate; 0.0212 µM in the test on HOP-92 NSCLC; 0.0154 µM in the test with RPMI-8226 leukemia; 0.0372 µM with SF-268 CNS. Also, the GI50 was less than 0.0181 µM with SK-MEL-2 melanoma, 0.0272 µM in the test with SK-OV-3 ovarian and 0.0169 µM in the test on SNB-19 CNS. Also, the TGI in the test with CAKI-1 renal amounted to 1.59 µM; in the test on CCRF-CEM leukemia, 9.95 µM; with DU-145 prostate, 6.22 µM; in the test with HOP-92 NSCLC, 0.0678 µM; with RPMI-8226 leukemia, 10.5 µM; in the test with SF-268 CNS, 13.4 µM. Besides, the TGI with SK-MEL-2 melanoma was found to be 0.26 µM; in the test on SK-OV-3 ovarian, 0.368 µM; in the test on SNB-19 CNS, 12.6 µM; in the test with SW-620 colon, 2.41 µM.
In the case of `C=CCN1CC(=O)N2[C@@H](Cc3ccc(O)cc3F)C(=O)N(Cc3cccc(N4CC(N5CCN(CC)CC5)C4)n3)C[C@@H]2N1C(=O)NCc1ccccc1`, the GI50 in the test on CAKI-1 renal was 0.0507 µM; in the test on CCRF-CEM leukemia, 0.0398 µM; in the test on DU-145 prostate it was 0.0844 µM; in the test with HOP-92 NSCLC, 0.0217 µM; with RPMI-8226 leukemia it was 0.05 µM; in the test with SF-268 CNS, 0.0348 µM. Besides, the GI50 in the test on SK-MEL-2 melanoma is 0.0435 µM; in the test on SK-OV-3 ovarian, 0.0345 µM; with SNB-19 CNS, 0.0324 µM; in the test with SW-620 colon, 0.107 µM. The TGI was 0.504 µM with CAKI-1 renal; greater than 100 µM in the test on CCRF-CEM leukemia; greater than 100 µM in the test on DU-145 prostate; 0.0829 µM in the test with HOP-92 NSCLC; 26.2 µM in the test with RPMI-8226 leukemia; greater than 100 µM in the test with SF-268 CNS. The TGI is 0.476 µM in the test with SK-MEL-2 melanoma, 0.244 µM with SK-OV-3 ovarian, greater than 100 µM in the test with SNB-19 CNS and greater than 100 µM in the test on SW-620 colon.
Regarding `N#CCN1CCn2c1nsc2=S`, the GI50 with CAKI-1 renal was greater than 100 µM; in the test on CCRF-CEM leukemia, 1.6 µM; with DU-145 prostate, greater than 100 µM; with HOP-92 NSCLC, greater than 100 µM; in the test with RPMI-8226 leukemia, greater than 100 µM; in the test on SF-268 CNS, greater than 100 µM. Also, the GI50 in the test with SK-MEL-2 melanoma, in the test with SK-OV-3 ovarian, in the test with SNB-19 CNS and in the test with SW-620 colon was greater than 100 µM each time. Besides, the TGI with CAKI-1 renal, in the test on CCRF-CEM leukemia, in the test with DU-145 prostate, with HOP-92 NSCLC, with RPMI-8226 leukemia and in the test with SF-268 CNS was greater than 100 µM in each case. Besides, the TGI with SK-MEL-2 melanoma, in the test on SK-OV-3 ovarian, with SNB-19 CNS and in the test with SW-620 colon was greater than 100 µM each time.
Turning to `Cn1cc(C2=C(c3cccc(OC[C@@H](O)CO)c3)C(=O)NC2=O)c2ccccc21`, the GI50 is 15.3 µM in the test on CAKI-1 renal; greater than 22.5 µM in the test with CCRF-CEM leukemia; greater than 25 µM in the test with DU-145 prostate; greater than 25 µM in the test on HOP-92 NSCLC; greater than 25 µM in the test with RPMI-8226 leukemia; greater than 25 µM in the test with SF-268 CNS. Also, the GI50 is greater than 25 µM in the test on SK-MEL-2 melanoma, greater than 18.3 µM in the test with SK-OV-3 ovarian, greater than 25 µM in the test on SNB-19 CNS and greater than 20.1 µM in the test on SW-620 colon. Further, the TGI in the test on CAKI-1 renal, with CCRF-CEM leukemia, with DU-145 prostate, in the test with HOP-92 NSCLC, in the test on RPMI-8226 leukemia and with SF-268 CNS was greater than 25 µM throughout. In addition, the TGI in the test with SK-MEL-2 melanoma, with SK-OV-3 ovarian, with SNB-19 CNS and in the test on SW-620 colon was greater than 25 µM in each case.
